Measurements published in patent publication US7618960B2, “Morpholine type cinnamide compound” (Eisai R&D Management Co., Ltd., priority 2005, dated 2009).
pIC50: −log10 of the molar value.

Each compound was assayed on Aβ42 production (assay: Quantification of Aβ peptide in culture of neurons from rat fetus brain (Aβ ELISA)). Conditions: Neuron, 72 h; rat primary neuronal culture (cerebral cortex, embryonic day 18 Wistar rats); medium collected three days after addition of compound; Aβx-42 ELISA; read-out: Activity for reducing Aβ42 production IC50.
Type: cell-based
Protocol: Quantification of Aβ Peptide in Culture of Neurons from Rat Fetus Brain
(1) Rat Primary Neuronal Culture
Primary neuronal cultures were prepared from the cerebral cortex of embryonic day 18 Wistar rats (Charles River Japan, Yokohama, Japan). Specifically, the embryos were aseptically removed from pregnant rats under ether anesthesia. The brain was isolated from the embryo and immersed in an ice-cold L-15 medium (Invitrogen Corp. Cat #11415-064, Carlsbad, Calif., USA, or SIGMA L1518, for example). The cerebral cortex was collected from the isolated brain under a stereoscopic microscope. The cerebral cortex fragments collected were enzymatically treated in an enzyme solution containing 0.25% trypsin (Invitrogen Corp. Cat #15050-065, Carlsbad, Calif., USA) and 0.01% DNase (Sigma D5025, St. Louis, Mo., USA) at 37° C. for 30 minutes to disperse the cells. Here, the enzymatic reaction was stopped by adding inactivated horse serum to the solution. The enzymatically treated solution was centrifuged at 1,500 rpm for five minutes to remove the supernatant. 5 to 10 ml of a medium was added to the resulting cell mass. Neurobasal medium (Invitrogen Corp. Cat #21103-049, Carlsbad, Calif., USA) supplemented with 2% B27 supplement (Invitrogen Corp. Cat #17504-044, Carlsbad, Calif., USA), 25 μM 2-mercaptoethanol (2-ME, WAKO Cat #139-06861, Osaka, Japan), 0.5 mM L-glutamine (Invitrogen Corp. Cat #25030-081, Carlsbad, Calif., USA), and Antibiotics-Antimycotics (Invitrogen Corp. Cat #15240-062, Carlsbad, Calif., USA) was used as the medium (Neurobasal/B27/2-ME). However, the above Neurobasal medium not supplemented with 2-ME (Neurobasal/B27) was used for the assay. The cells were redispersed by mild pipetting of the cell mass to which the medium was added. The cell dispersion was filtered through a 40-μm nylon mesh (Cell Strainer, Cat #35-2340, Becton Dickinson Labware, Franklin Lakes, N.J., USA) to remove the remaining cell mass, and thus a neuronal cell suspension was obtained. The neuronal cell suspension was diluted with the medium and then plated in a volume of 100 μl/well at an initial cell density of 5×10^5 cells/cm^2 in a 96-well polystyrene culture plate pre-coated with poly-L or D-lysine (Falcon Cat #35-3075, Becton Dickinson Labware, Franklin Lakes, N.J., USA coated with poly-L-lysine using the method shown below, or BIOCOAT™ cell environments Poly-D-lysine cell ware 96-well plate, Cat #35-6461, Becton Dickinson Labware, Franklin Lakes, N.J., USA). Poly-L-lysine coating was carried out as follows. 100 μg/ml of a poly-L-lysine (SIGMA P2636, St. Louis, Mo., USA) solution was aseptically prepared with a 0.15 M borate buffer (pH 8.5). 100 μl/well of the solution was added to the 96-well polystyrene culture plate and incubated at room temperature for one or more hours or at 4° C. overnight or longer. The coated 96-well polystyrene culture plate was washed with sterile water four or more times, and then dried or rinsed with, for example, sterile PBS or medium, and used for cell plating. The plated cells were cultured in the culture plate at 37° C. in 5% […]-95% air for one day. Then, the total amount of the medium was replaced with a fresh Neurobasal™/B27/2-ME medium, and then the cells were cultured for further three days.
The drug was added to the culture plate on Day 4 of culture as follows. The total amount of the medium was removed from the wells, and 180 μl/well of Neurobasal medium not containing 2-ME and containing 2% B-27 (Neurobasal/B27) was added thereto. A solution of the test compound in dimethyl sulfoxide (hereinafter abbreviated as DMSO) was diluted with Neurobasal/B27 so that the initial concentration was at 10-fold of the final concentration. 20 μl/well of the dilution was added to and sufficiently mixed with the medium. The final DMSO concentration was 1% or less. Only DMSO was added to the control group.
The cells were cultured for three days after addition of the compound, and the total amount of the medium was collected. […]
`COc1cc(/C=C2\O[C@@H](C)CN([C@@H](C)c3ccc(F)cc3)C2=O)ccc1-n1cnc(C)c1` [Example 9, (Z)-(S)-4-[(S)-1-(4-fluorophenyl)ethyl]-2-[1-[3-methoxy-4-(4-methyl-1H-imidazol-1-yl)phenyl]methylidene]-6-methylmorpholin-3-one] showed a pIC50 of 7.22.
With `COc1cc(/C=C2\O[C@H](C)CN([C@H]3CCOc4ccccc43)C2=O)ccc1-n1cnc(C)c1` [Example 14, (Z)-(R)-4-[(S)-chroman-4-yl]-2-[1-[3-methoxy-4-(4-methyl-1H-imidazol-1-yl)phenyl]methylidene]-6-methylmorpholin-3-one] the pIC50 was 6.84.
With `Cc1cn(-c2ccc(/C=C3\C[C@H](C)CN([C@H](c4cc(F)c(F)c(F)c4)[C@@H](C)O)C3=O)cc2F)cn1` [Example 84, (E)-(S)-3-{1-[3-fluoro-4-(4-methyl-1H-imidazol-1-yl)phenyl]methylidene}-1-[(1R,2R)-2-hydroxy-1-(3,4,5-trifluorophenyl)propyl]-5-methylpiperidin-2-one] the pIC50 was 7.43.
For `COc1cc(/C=C2\O[C@H](C)CN([C@H](c3cc(F)c(F)c(F)c3)[C@@H](C)O)C2=O)ccc1-n1cnc(C)c1` [Example 29, (Z)-(6R)-4-[(1R,2R)-2-hydroxy-1-(3,4,5-trifluorophenyl)propyl]-2-[1-[3-methoxy-4-(4-methyl-1H-imidazol-1-yl)phenyl]methylidene]-6-methylmorpholin-3-one], the pIC50 was 7.64.
`COc1cc(/C=C2\O[C@@H](C)CN([C@H]3CCOc4ccccc43)C2=O)ccc1-n1cnc(C)c1` [Example 13, (Z)-(S)-4-[(S)-chroman-4-yl]-2-[1-[3-methoxy-4-(4-methyl-1H-imidazol-1-yl)phenyl]methylidene]-6-methylmorpholin-3-one] showed a pIC50 of 6.89.
With `COc1cc(/C=C2\OCCN([C@H](c3ccc(F)c(F)c3)[C@@H](C)O)C2=O)ccc1-n1cnc(C)c1` [Example 31, (Z)-4-[(1R,2R)-1-(3,4-difluorophenyl)-2-hydroxypropyl]-2-[1-[3-methoxy-4-(4-methyl-1H-imidazol-1-yl)phenyl]methylidene]morpholin-3-one] the pIC50 was 7.51.
`COc1cc(/C=C2\OC(C)(C)CN([C@@H](CO)c3ccc(F)cc3)C2=O)ccc1-n1cnc(C)c1` [Example 28, (Z)-4-[(R)-1-(4-fluorophenyl)-2-hydroxyethyl]-2-[1-[3-methoxy-4-(4-methyl-1H-imidazol-1-yl)phenyl]methylidene]-6,6-dimethylmorpholin-3-one] gave a pIC50 of 7.80.
Compound `COc1cc(/C=C2\OC[C@H]3COC[C@@H](c4cc(F)c(F)c(F)c4)N3C2=O)ccc1-n1cnc(C)c1` [Example 108, (6R,9aR)-3-{1-[3-methoxy-4-(4-methyl-1H-imidazol-1-yl)phenyl]-(Z)-methylidene}-6-(3,4,5-trifluorophenyl)tetrahydro[1,4]oxazino[3,4-c][1,4]oxazin-4-one] has a pIC50 of 7.22.
For `COc1cc(/C=C2\O[C@@H](C)CN([C@H](c3ccc(F)cc3)[C@@H](C)O)C2=O)ccc1-n1cnc(C)c1` [Example 32, (Z)-(S)-4-[(1R,2R)-1-(4-fluorophenyl)-2-hydroxypropyl]-2-[1-[3-methoxy-4-(4-methyl-1H-imidazol-1-yl)phenyl]methylidene]-6-methylmorpholin-3-one], the pIC50 was 7.39.
In the case of `COc1cc(/C=C2\O[C@@H](C)CN([C@H](C)c3ccc(F)nc3F)C2=O)ccc1-n1cnc(C)c1` [Example 23, (Z)-(S)-4-[(R)-1-(2,6-difluoropyridin-3-yl)ethyl]-2-[1-[3-methoxy-4-(4-methyl-1H-imidazol-1-yl)phenyl]methylidene]-6-methylmorpholin-3-one], the pIC50 was 6.89.
For `COc1cc(/C=C2\O[C@H](C)CN(Cc3cc(F)c(F)c(F)c3)C2=O)ccc1-n1cnc(C)c1` [Example 4, (Z)-(R)-2-[1-[3-methoxy-4-(4-methyl-1H-imidazol-1-yl)phenyl]methylidene]-6-methyl-4-(3,4,5-trifluorobenzyl)morpholin-3-one], the pIC50 was 7.16.

Same assay, conditions: rat primary neuronal culture (cerebral cortex, embryonic day 18 Wistar rats); medium collected three days after addition of compound; Aβx-42 ELISA; read-out: Activity for reducing Aβ42 production IC50
With `COc1cc(/C=C2\OC[C@H]3CCC[C@@H](c4ccc(F)cc4)N3C2=O)ccc1-n1cnc(C)c1` [Example 16] the pIC50 was 6.70.
